biological target: T1, Cbl-b (Homo sapiens, UniProt Q13191); experiment: Cbl-b probe displacement HTRF binding assay; details: 0.4 nM Cbl-b, 150 nM BODIPY probe
T1 construct: biotin (biotinylated protein)
Outline: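 Compound competes with BODIPY probe (150 nM) for biotinylated Cbl-b (0.4 nM) in HEPES/NaCl/Triton/TCEP/BSA buffer; 60 min preincubation, 15 min with probe, room temperature. Tb-streptavidin HTRF read; % displacement vs DMSO and no-protein controls, IC50 from four-parameter fit.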

T1 sequence (Q13191 whole entry, species assumed): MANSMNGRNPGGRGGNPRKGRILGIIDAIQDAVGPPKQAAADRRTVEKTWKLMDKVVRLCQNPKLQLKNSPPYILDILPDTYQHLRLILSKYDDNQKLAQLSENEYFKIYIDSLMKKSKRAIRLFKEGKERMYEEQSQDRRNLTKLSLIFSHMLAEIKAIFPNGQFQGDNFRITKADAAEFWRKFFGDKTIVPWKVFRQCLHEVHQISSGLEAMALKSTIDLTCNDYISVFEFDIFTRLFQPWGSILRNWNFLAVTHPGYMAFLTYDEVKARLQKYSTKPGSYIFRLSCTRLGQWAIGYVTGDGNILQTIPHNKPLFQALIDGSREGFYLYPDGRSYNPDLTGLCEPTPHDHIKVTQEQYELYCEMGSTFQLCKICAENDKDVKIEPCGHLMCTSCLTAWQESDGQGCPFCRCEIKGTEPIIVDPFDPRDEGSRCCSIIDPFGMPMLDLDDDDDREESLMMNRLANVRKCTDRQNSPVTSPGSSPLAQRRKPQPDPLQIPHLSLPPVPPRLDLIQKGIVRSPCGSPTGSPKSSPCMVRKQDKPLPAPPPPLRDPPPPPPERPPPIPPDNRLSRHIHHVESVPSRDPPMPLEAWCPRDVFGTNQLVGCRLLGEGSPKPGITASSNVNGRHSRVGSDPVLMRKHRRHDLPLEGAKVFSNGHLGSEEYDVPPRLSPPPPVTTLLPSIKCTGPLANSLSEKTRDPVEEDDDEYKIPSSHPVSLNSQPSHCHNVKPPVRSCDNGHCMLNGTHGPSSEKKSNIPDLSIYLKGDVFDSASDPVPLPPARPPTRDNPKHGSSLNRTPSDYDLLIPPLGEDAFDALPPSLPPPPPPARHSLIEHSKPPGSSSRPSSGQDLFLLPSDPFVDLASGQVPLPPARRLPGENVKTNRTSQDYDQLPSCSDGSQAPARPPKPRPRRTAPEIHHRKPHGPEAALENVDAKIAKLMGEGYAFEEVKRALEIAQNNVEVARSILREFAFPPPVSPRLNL

IC50, < 100 nM:
CO[C@@H](C)CNCc1cc(C(=O)Nc2cc(-c3ccc(C#N)cc3C(=O)N3CC(F)(F)C3)cc(OC3CC3)n2)c(=O)n(C2CC2)c1 [Example 195]
COC[C@H](C)NCc1cc(C(=O)Nc2cc(-c3ccc(C#N)cc3C(=O)N3CC(F)(F)C3)cc(C3CC3)n2)c(=O)n(C2CC2)c1 [Example 361]
Cn1cc(CNC[C@@H]2CCCCO2)cc(C(=O)Nc2cc(-c3ccc(Cl)cc3C(=O)N3CC(F)(F)C3)cc(C3CC3)n2)c1=O [Example 108, N-[4-[4-chloro-2-(3,3-difluoroazetidine-1-carbonyl)phenyl]-6-cyclopropylpyridin-2-yl]-1-methyl-5-[[[(2S)-oxan-2-yl]methylamino]methyl]-2-oxopyridine-3-carboxamide]
CC(C)Oc1cc(-c2ccc(OC(F)F)cc2C(=O)N2CC(F)(F)C2)cc(NC(=O)c2cc(CN[C@@H](C)C3CCC3)cn(C3CC3)c2=O)n1 [Example 98]
COc1ccc(-c2cc(NC(=O)c3cc(CNC[C@@H]4CCCO4)cn(C4CC4)c3=O)nc(C3CC3)c2)c(C(=O)N2CC(F)(F)C2)c1 [Example 153, N-(6-Cyclopropyl-4-{2-[(3,3-difluoro-1-azetidinyl)carbonyl]-4-methoxyphenyl}-2-pyridyl)-1-cyclopropyl-2-oxo-5-[({[(S)-perhydro-2-furyl]methyl}amino)methyl]-1,2-dihydronicotinamide]
COc1ccc(-c2cc(NC(=O)c3cc(CN[C@@H](C)C4CCC4)cn(C4CC4)c3=O)nc(OC(C)C)c2)c(C(=O)N2CC(F)C2)c1 [Example 254]
CC(C)CNCc1cc(C(=O)Nc2cc(-c3ccc(C#N)cc3C(=O)N3CC(F)C3)cc(OC(C)C)n2)c(=O)n(C)c1 [Example 272]
CCOc1cc(-c2ccc(OC(F)F)cc2C(=O)N2CC(F)C2)cc(NC(=O)c2cc(CNC[C@H](C)OC)cn(C3CC3)c2=O)n1 [Example 104, N-(4-{4-Difluoromethoxy-2-[(3-fluoro-1-azetidinyl)carbonyl]phenyl}-6-ethoxy-2-pyridyl)-5-{[(S)-2-methoxypropylamino]methyl}-1-cyclopropyl-2-oxo-1,2-dihydronicotinamide]
CO[C@H]1CCC[C@@H]1NCc1cc(C(=O)Nc2cc(-c3ccc(C#N)cc3C(=O)N3CC(F)(F)C3)cc(C3CC3)n2)c(=O)n(C2CC2)c1 [Example 363]
COc1ccc(-c2cc(NC(=O)c3cc(CNCC(C)C)cn(C4CC4)c3=O)nc(OC(C)C)c2)c(C(=O)N2CC(F)C2)c1 [Example 281]
COCCNCc1cc(C(=O)Nc2cc(-c3ccc(Cl)cc3C(=O)N3CC(F)C3)cc(C3CC3)n2)c(=O)n(C2CC2)c1 [Example 285]
CCOc1cc(-c2ccc(C#N)cc2C(=O)N2CC(F)(F)C2)cc(NC(=O)c2cc(CNCCOC)cn(C3CC3)c2=O)n1 [Example 345]
CC1(CNCc2cc(C(=O)Nc3cc(-c4ccc(Cl)cc4C(=O)N4CC(F)(F)C4)cc(C4CC4)n3)c(=O)n(C3CC3)c2)CC1 [Example 408]
O=C(Nc1cc(-c2ccc(Cl)cc2C(=O)N2CC(F)(F)C2)cc(C2CC2)n1)c1cc(CNCCCF)cn(C2CC2)c1=O [Example 136, N-(4-{4-chloro-2-[(3,3-difluoro-1-azetidinyl)carbonyl]phenyl}-6-cyclopropyl-2-pyridyl)-1-cyclopropyl-5-[(3-fluoropropylamino)methyl]-2-oxo-1,2-dihydronicotinamide]
CO[C@@H](C)[C@H](C)NCc1cc(C(=O)Nc2cc(-c3ccc(OC(F)F)cc3C(=O)N3CC(F)(F)C3)cc(OC(C)C)n2)c(=O)n(C2CC2)c1 [Example 205]
CO[C@@H](C)CNCc1cc(C(=O)Nc2cc(-c3cc(Cl)c(Cl)cc3C(=O)N3CC(F)(F)C3)cc(C3CC3)n2)c(=O)n(C2CC2)c1 [Example 411]
CCNc1cc(-c2ccc(OC(F)F)cc2C(=O)N2CC(F)(F)C2)cc(NC(=O)c2cc(CNC[C@H](C)OC)cn(C3CC3)c2=O)n1 [Example 330]
CO[C@@H](C)CNCc1cc(C(=O)Nc2cc(-c3ccc(C)cc3C(=O)N3CC(F)C3)cc(OC(C)C)n2)c(=O)n(C2CC2)c1 [Example 290]
COCCNCc1cc(C(=O)Nc2cc(-c3c(Cl)cc(Cl)cc3C(=O)N3CC(F)(F)C3)cc(C3CC3)n2)c(=O)n(C2CC2)c1 [Example 405]
CC1(NCc2cc(C(=O)Nc3cc(-c4ccc(C#N)cc4C(=O)N4CC(F)(F)C4)cc(C4CC4)n3)c(=O)n(C3CC3)c2)CCC1 [Example 390]
CO[C@@H](C)CNCc1cc(C(=O)Nc2cc(-c3ccc(Cl)cc3C(=O)N3CC(C)(F)C3)cc(C3CC3)n2)c(=O)n(C2CC2)c1 [Example 158, N-(4-{4-Chloro-2-[(3-fluoro-3-methyl-1-azetidinyl)carbonyl]phenyl}-6-cyclopropyl-2-pyridyl)-1-cyclopropyl-5-{[(S)-2-methoxypropylamino]methyl}-2-oxo-1,2-dihydronicotinamide]
CC(C)CNCc1cc(C(=O)Nc2cc(-c3ccc(OC(F)F)cc3C(=O)N3CC(F)(F)C3)cc(C3CC3)n2)c(=O)n(C)c1 [Example 109, N-[6-cyclopropyl-4-[2-(3,3-difluoroazetidine-1-carbonyl)-4-(difluoromethoxy)phenyl]pyridin-2-yl]-1-methyl-5-[(2-methylpropylamino)methyl]-2-oxopyridine-3-carboxamide]
CCOc1cc(-c2ccc(Cl)cc2C(=O)N2CC(F)(F)C2)cc(NC(=O)c2cc(CN[C@@H](C)COC)cn(C3CC3)c2=O)n1 [Example 238]
CO[C@@H](C)CNCc1cc(C(=O)Nc2cc(-c3ccc(OC(F)F)cc3C(=O)N3CC(F)(F)C3)cc(C)n2)c(=O)n(C2CC2)c1 [Example 338]
COc1ccc(-c2cc(NC(=O)c3cc(CNCC(C)C)cn(C4CC4)c3=O)nc(OC(C)C)c2)c(C(=O)N2CC(F)(F)C2)c1 [Example 289]
CC(C)Nc1cc(-c2ccc(Cl)cc2C(=O)N2CC(F)(F)C2)cc(NC(=O)c2cc(CN[C@@H](C)C3CCC3)cn(C3CC3)c2=O)n1 [Example 221]
CC(C)CNCc1cc(C(=O)Nc2cc(-c3ccc(C#N)cc3C(=O)N3CC(F)(F)C3)cc(C3CC3)n2)c(=O)n(C2CC2)c1 [Example 356]
CO[C@@H](C)[C@H](C)NCc1cc(C(=O)Nc2cc(-c3c(F)cc(C#N)cc3C(=O)N3CC(F)(F)C3)cc(C3CC3)n2)c(=O)n(C2CC2)c1 [Example 125, N-(4-{4-cyano-2-[(3,3-difluoro-1-azetidinyl)carbonyl]-6-fluorophenyl}-6-cyclopropyl-2-pyridyl)-1-cyclopropyl-5-{[(1S,2S)-2-methoxy-1-methylpropylamino]methyl}-2-oxo-1,2-dihydronicotinamide]
CO[C@@H](C)CNCc1cc(C(=O)Nc2cc(-c3ccc(C#N)cc3C(=O)N3CC(C)(F)C3)cc(C3CC3)n2)c(=O)n(C2CC2)c1 [Example 394]
CC(C)CNCc1cc(C(=O)Nc2cc(-c3ccc(OC(F)F)cc3C(=O)N3CC(F)C3)cc(OC(C)C)n2)c(=O)n(C)c1 [Example 294]
COCCNCc1cc(C(=O)Nc2cc(-c3ccc(Cl)cc3C(=O)N3CCC3)cc(C3CC3)n2)c(=O)n(C2CC2)c1 [Example 298]
CC(C)Oc1cc(-c2ccc(OC(F)F)cc2C(=O)N2CC(F)C2)cc(NC(=O)c2cc(CN[C@@H](C)C3CCC3)cn(C3CC3)c2=O)n1 [Example 249]
CO[C@@H](C)CNC(C)c1cc(C(=O)Nc2cc(-c3ccc(C#N)cc3C(=O)N3CC(F)(F)C3)cc(C3CC3)n2)c(=O)n(C2CC2)c1 (stereo partly drawn) [Example 324]
CC(C)Oc1cc(-c2ccc(C#N)cc2C(=O)N2CC(F)(F)C2)cc(NC(=O)c2cc(CN[C@@H](C)C(C)C)cn(C)c2=O)n1 [Example 214]
N#Cc1ccc(-c2cc(NC(=O)c3cc(CNC[C@@H]4CCCO4)cn(C4CC4)c3=O)nc(OC(F)F)c2)c(C(=O)N2CC(F)(F)C2)c1 [Example 341]
CC(C)Nc1cc(-c2ccc(Cl)cc2C(=O)N2CC(F)(F)C2)cc(NC(=O)c2cc(CN[C@@H](C)C3CC3)cn(C3CC3)c2=O)n1 [Example 219]
CCOc1cc(-c2ccc(Cl)cc2C(=O)N2CC(F)(F)C2)cc(NC(=O)c2cc(CNC[C@H](C)OC)cn(C)c2=O)n1 [Example 180]
CCOc1cc(-c2ccc(OC(F)F)cc2C(=O)N2CC(F)C2)cc(NC(=O)c2cc(CNCC(C)C)cn(C)c2=O)n1 [Example 286]
CC(C)CNCc1cc(C(=O)Nc2cc(-c3c(F)cc(C#N)cc3C(=O)N3CC(F)(F)C3)cc(OC(C)C)n2)c(=O)n(C)c1 [Example 234]
COc1ccc(-c2cc(NC(=O)c3cc(CNC[C@@H]4CCCO4)cn(C)c3=O)nc(C3CC3)c2)c(C(=O)N2CC(F)C2)c1 [Example 319]
COc1ccc(-c2cc(NC(=O)c3cc(CNC[C@H](C)OC)cn(C)c3=O)nc(OC(C)C)c2)c(C(=O)N2CC(F)(F)C2)c1 [Example 308]
COCCNCc1cc(C(=O)Nc2cc(-c3ccc(OC(F)F)cc3C(=O)N3CC(F)(F)C3)cc(C3CC3)n2)c(=O)n(C2CC2)c1 [Example 337]

From US20260116868A1 (Arcus Biosciences, Inc., priority 2023, published 2026)
